Where a name gives a salt, the structure may show the parent alone.
Each compound was assayed against T1, human A3AR (Homo sapiens, UniProt P0DMS8) (assay: LOPAC library primary screen: single concentration (10 μM) inhibition of 25 nM CA200645 binding, PHERAstar FS). Details: not given.
T1 construct: expressed in transfected cells
T1 sequence (P0DMS8 1-318): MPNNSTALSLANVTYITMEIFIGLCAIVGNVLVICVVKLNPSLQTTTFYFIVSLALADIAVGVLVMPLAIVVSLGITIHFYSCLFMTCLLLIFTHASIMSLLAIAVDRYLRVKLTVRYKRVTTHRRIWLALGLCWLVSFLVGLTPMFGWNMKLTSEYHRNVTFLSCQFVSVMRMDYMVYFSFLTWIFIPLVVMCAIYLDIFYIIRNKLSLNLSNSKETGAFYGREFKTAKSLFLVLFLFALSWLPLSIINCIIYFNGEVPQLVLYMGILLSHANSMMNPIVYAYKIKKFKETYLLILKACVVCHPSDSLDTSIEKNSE

`OC[C@H]1NC[C@H](O)[C@@H](O)[C@@H]1O` [1-Deoxynojirimycin hydrochloride] and `Nc1ncn([C@@H]2O[C@H](CO)[C@@H](O)[C@H]2O)c(=O)n1` [5-azacytidine] are within error of each other in “% 25 nM CA200645 binding” value: 98.5 ± 11.6% for the first, 92.0 ± 10.7% for the second.

`Cl.Cl.Cn1cnc(CCN)c1` [1-Methylhistamine dihydrochloride] and `Cl.NCCc1ccc(O)cc1` [4-Hydroxyphenethylamine hydrochloride] are within error of each other in “% 25 nM CA200645 binding” value: 99.7 ± 10.5% for the first, 98.7 ± 19.0% for the second.

`Cn1ccnc1` [1-Methylimidazole] and `FC(F)(F)c1ccccc1-n1ccnc1` [1-[2-(Trifluoromethyl)phenyl]imidazole] are within error of each other in “% 25 nM CA200645 binding” value: 115.7 ± 16.4% for the first, 101.2 ± 9.4% for the second.

`S=C(Nc1ccccc1)Nc1nccs1` [1-Phenyl-3-(2-thiazolyl)-2-thiourea] and `N=C(N)NC(=N)Nc1ccccc1` [1-Phenylbiguanide] are within error of each other in “% 25 nM CA200645 binding” value: 94.0 ± 11.6% for the first, 96.2 ± 2.3% for the second.

`Cc1cn([C@H]2C=C[C@@H](CO)O2)c(=O)[nH]c1=O` [2',3'-didehydro-3'-deoxythymidine] and `Cc1cn(C2CC(N=[N+]=[N-])C(CO)O2)c(=O)[nH]c1=O` (stereo not drawn) [3'-Azido-3'-deoxythymidine] are within error of each other in “% 25 nM CA200645 binding” value: 82.1 ± 11.9% for the first, 82.3 ± 18.1% for the second.

Going from `c1ccc(-c2ccccn2)nc1` [2,2'-Bipyridyl] to `O=c1[nH]c2ccccc2c2ccccc12` [6(5H)-Phenanthridinone], the “% 25 nM CA200645 binding” value falls from 105.2 ± 7.5% to 41.6 ± 14.1%.

`CC(=O)C(C)=NO` [2,3-Butanedione monoxime] and `CC(=O)C(C)=O` [2,3-Butanedione] are within error of each other in “% 25 nM CA200645 binding” value: 109.9 ± 13.3% for the first, 101.3 ± 15.0% for the second.

`COC1=C(OC)C(=O)c2ccccc2C1=O` [2,3-Dimethoxy-1,4-naphthoquinone] and `Nc1ccc2c3c(cccc13)C(=O)NC2=O` [4-Amino-1,8-naphthalimide] are within error of each other in “% 25 nM CA200645 binding” value: 99.3 ± 8.8% for the first, 95.4 ± 12.1% for the second.

`O=C[C@H](Cl)[C@@H](O)[C@H](O)[C@H](O)CO` [2-Chloro-2-deoxy-D-glucose] and `O=C(O)Cc1ccc(O)c(O)c1` [3,4-Dihydroxyphenylacetic acid] are within error of each other in “% 25 nM CA200645 binding” value: 89.9 ± 5.0% for the first, 97.0 ± 9.9% for the second.

Compared with `Nc1nc(Cl)nc2c1ncn2[C@@H]1O[C@H](CO)[C@@H](O)[C@H]1O` [2-Chloroadenosine], `Nc1nccc2c1ncn2[C@@H]1O[C@H](CO)[C@@H](O)[C@H]1O` [3-deazaadenosine] is higher in “% 25 nM CA200645 binding” value: 51.0 ± 6.7% for the first, 93.8 ± 11.9% for the second.

Going from `NCC(O)(CS(=O)(=O)O)c1ccc(Cl)cc1` (stereo not drawn) [2-Hydroxysaclofen] to `NNC(=O)c1ccc(O)cc1` [4-Hydroxybenzhydrazide], the “% 25 nM CA200645 binding” value rises from 92.7 ± 0.2% to 105.3 ± 8.4%.

`Cc1[nH]c2ccc(O)cc2c1CCN.O=C(O)/C=C\C(=O)O` [2-Methyl-5-hydroxytryptamine maleate] and `NCCc1c[nH]c2ccc(C(N)=O)cc12.O=C(O)/C=C\C(=O)O` [5-Carboxamidotryptamine maleate] are within error of each other in “% 25 nM CA200645 binding” value: 104.7 ± 14.7% for the first, 85.7 ± 14.5% for the second.

`O=c1oc(Cl)c(Cl)c2ccccc12` [3,4-Dichloroisocoumarin] and `O=[N+]([O-])c1cccc2c(Br)n[nH]c12` [3-Bromo-7-nitroindazole] are within error of each other in “% 25 nM CA200645 binding” value: 95.8 ± 9.3% for the first, 81.2 ± 6.7% for the second.

`O=[N+]([O-])c1cc(O)c(O)c([N+](=O)[O-])c1` [3,5-Dinitrocatechol] and `Cl.NCC(O)c1cc(O)c(O)cc1F` (stereo not drawn) [6-Fluoronorepinephrine hydrochloride] are within error of each other in “% 25 nM CA200645 binding” value: 100.0 ± 11.8% for the first, 77.6 ± 28.4% for the second.

`C#CCn1c(=O)c2c(ncn2C)n(C)c1=O` [3,7-Dimethyl-1-propargylxanthine] and `CC(C)Cn1c(=O)n(C)c(=O)c2[nH]cnc21` [3-Isobutyl-1-methylxanthine] are within error of each other in “% 25 nM CA200645 binding” value: 94.8 ± 1.8% for the first, 98.0 ± 7.1% for the second.

`NCCCS(=O)(=O)O.[Na]` [3-Amino-1-propanesulfonic acid sodium] and `NCCCP(=O)(O)O` [3-Aminopropylphosphonic acid] are within error of each other in “% 25 nM CA200645 binding” value: 96.5 ± 4.6% for the first, 90.0 ± 2.1% for the second.

`N#CCCN.N#CCCN.O=C(O)/C=C/C(=O)O` [3-Aminopropionitrile fumarate] and `Cl.NCCCCC(=O)O` [5-Aminovaleric acid hydrochloride] are within error of each other in “% 25 nM CA200645 binding” value: 91.9 ± 6.3% for the first, 97.9 ± 5.1% for the second.

`N[C@@H](Cc1ccc(O)c(I)c1)C(=O)O` [3-Iodo-L-tyrosine] and `N[C@@H](Cc1c[nH]c2ccc(O)cc12)C(=O)O` [5-Hydroxy-L-tryptophan] are within error of each other in “% 25 nM CA200645 binding” value: 96.8 ± 8.8% for the first, 97.7 ± 1.5% for the second.

Compared with `Nc1c[n+](N2CCOCC2)no1.[Cl-]` [3-Morpholinosydnonimine hydrochloride], `N=C(N)NC(=O)c1nc(Cl)c(N2CCCCCC2)nc1N` [5-(N,N-hexamethylene)amiloride] is lower in “% 25 nM CA200645 binding” value: 114.0 ± 15.4% for the first, 87.5 ± 4.4% for the second.

`O=C(O)CC[N+](=O)[O-]` [3-Nitropropionic acid] and `NCCCCCC(=O)O` [6-Aminohexanoic acid] are within error of each other in “% 25 nM CA200645 binding” value: 111.3 ± 13.2% for the first, 109.0 ± 9.6% for the second.

`CCCn1c(=O)[nH]c(=O)c2nc[nH]c21` [3-n-Propylxanthine] and `O=c1[nH]cc(F)c(=O)[nH]1` [5-Fluorouracil] are within error of each other in “% 25 nM CA200645 binding” value: 101.0 ± 10.1% for the first, 98.8 ± 8.7% for the second.

`Nc1ccncc1` [4-Aminopyridine] and `O=Nc1ccc2oc(=O)ccc2c1` [6-Nitroso-1,2-benzopyrone] are within error of each other in “% 25 nM CA200645 binding” value: 93.6 ± 7.2% for the first, 107.9 ± 12.7% for the second.

`C[N+]1(C)CCC(OC(=O)C(c2ccccc2)c2ccccc2)CC1.[I-]` [4-DAMP methiodide] and `O=C1NC(=O)C(c2ccccc2)(c2ccccc2)N1` [5,5-Diphenylhydantoin] are within error of each other in “% 25 nM CA200645 binding” value: 84.9 ± 19.8% for the first, 95.9 ± 12.2% for the second.

`COc1cc(CC(=O)O)ccc1O` [4-Hydroxy-3-methoxyphenylacetic acid] and `O=C(O)Cc1c[nH]c2ccc(O)cc12` [5-Hydroxyindolacetic acid] are within error of each other in “% 25 nM CA200645 binding” value: 94.9 ± 9.6% for the first, 102.3 ± 8.2% for the second.

`Cl.OCc1c[nH]cn1` [4-Imidazolemethanol hydrochloride] and `Cc1cn[nH]c1.Cl` [4-Methylpyrazole hydrochloride] are within error of each other in “% 25 nM CA200645 binding” value: 101.5 ± 8.2% for the first, 102.3 ± 3.8% for the second.

`CC1(C)CCC=[N+]1[O-]` [5,5-Dimethyl-1-pyrroline-N-oxide] and `CC(=O)[C@H]1CC[C@H]2[C@@H]3CC[C@H]4C[C@H](O)CC[C@]4(C)[C@H]3CC[C@]12C` [5alpha-Pregnan-3alpha-ol-20-one] are within error of each other in “% 25 nM CA200645 binding” value: 106.0 ± 5.3% for the first, 85.2 ± 19.4% for the second.

`O=C(O)c1cc(=O)c2c(Cl)cc(Cl)cc2[nH]1` [5,7-Dichlorokynurenic acid] and `O=C(O)c1cc2cc(F)ccc2[nH]1` [5-Fluoroindole-2-carboxylic acid] are within error of each other in “% 25 nM CA200645 binding” value: 100.9 ± 8.8% for the first, 92.5 ± 8.9% for the second.

`CN(C)c1nc(N)c(C(=O)NC(=N)N)nc1Cl` [5-(N,N-Dimethyl)amiloride hydrochloride] and `CCN(c1nc(N)c(C(=O)NC(=N)N)nc1Cl)C(C)C` [5-(N-Ethyl-N-isopropyl)amiloride] are within error of each other in “% 25 nM CA200645 binding” value: 95.5 ± 2.7% for the first, 94.1 ± 7.3% for the second.

`O=c1[nH]c(=O)n([C@H]2C[C@H](O)[C@@H](CO)O2)cc1Br` [5-Bromo-2'-deoxyuridine] and `C[C@H]1O[C@@H](n2cc(F)c(=O)[nH]c2=O)[C@H](O)[C@@H]1O` [5-fluoro-5'-deoxyuridine] are within error of each other in “% 25 nM CA200645 binding” value: 101.6 ± 8.3% for the first, 95.4 ± 4.3% for the second.

`CC(C)c1cccc(C(C)C)c1N1C(=O)c2ccc(O)cc2C1=O` [5HPP-33] and `COc1cc2c(CCNC(C)=O)c[nH]c2cc1O` [6-Hydroxymelatonin] are within error of each other in “% 25 nM CA200645 binding” value: 91.1 ± 9.2% for the first, 94.1 ± 9.8% for the second.

`Br.NC1CCc2cc(O)c(O)cc2C1` (stereo not drawn) [6,7-ADTN hydrobromide] and `COc1cc2c(CCNC(C)=O)c[nH]c2cc1Cl` [6-Chloromelatonin] are within error of each other in “% 25 nM CA200645 binding” value: 100.4 ± 8.1% for the first, 92.8 ± 24.3% for the second.

For `Nc1nc(Cl)nc2c1ncn2[C@@H]1O[C@H](CO)[C@@H](O)[C@H]1O` [2-CADO, reference compound], the “% Total CA200645 binding” value was 51.0 ± 6.7%.

Same assay, conditions: % of control wells (1% DMSO and 25 nM CA200645); compounds at 10 µM; whole live cells expressing A3AR; mean ± SD, three experiments in duplicate

With `CN1[C@@H]2CC[C@H]1C[C@@H](OC(=O)c1cc(Cl)cc(Cl)c1)C2` [3-Tropanyl-3,5-dichlorobenzoate] the “% 25 nM CA200645 binding” value was 96.9 ± 4.1%.

Same assay, conditions: % of control wells (1% DMSO and 25 nM CA200645); compounds at 10 µM; whole live cells expressing the A3AR; mean ± SD, three experiments in duplicate

With `N=C(N)c1ccc(N)cc1` [4-Aminobenzamidine dihydrochloride] the “% 25 nM CA200645 binding” value was 97.4 ± 8.5%.

Same assay, conditions: compounds tested at 10 µM; % of control wells (1% DMSO and 25 nM CA200645); […]; mean ± SD, three experiments in duplicate

With `NC(=O)c1cccc(N)c1` [3-aminobenzamide] the “% 25 nM CA200645 binding” value was 91.6 ± 2.5%.

From publication PMC5733478, “A Non-imaging High Throughput Approach to Chemical Library Screening at the Unmodified Adenosine-A3 Receptor in Living Cells” (Frontiers in Pharmacology, 2017)
